From patent US10363231B2, “Compounds and methods of treating ocular disorders” (CASE WESTERN RESERVE UNIVERSITY, priority 2014, dated 2019)
“Also recorded” adds a separate entry of the source.

Legend:
[1] = biological target: T1, RPE65 (Bos taurus, UniProt Q28175); test: Retinoid isomerase activity assay (11-cis-retinol production in RPE microsomes); format: biochemical, Bovine; details: for IC50: primary amine, decline in 11-cis-retinol production in RPE microsomes, read-out: Inhibition of RPE65
T1 construct: from tissue; host or cells: bovine retinal pigment epithelium (RPE) microsomes
Procedure: Bovine RPE microsomes were isolated from RPE homogenates by differential centrifugation as previously described. The resulting microsomal precipitate was resuspended in 10 mM Bis-Tris propane/HCl buffer, pH 7.4, to achieve a total protein concentration of […]. Then the mixture was placed in a quartz cuvette and irradiated for 6 min at 4° C. with a ChromatoUVE transilluminator (model TM-15; UVP) to eliminate residual retinoids. After irradiation, DTT was added to the RPE microsomal mixture to achieve a final concentration of 5 mM.
[…] The resulting mixture was pre incubated at room temperature for 5 min. Then 1 μl of all-trans-retinol (in DMF, final concentration 20 μM) was added. The resulting mixture was incubated at 37° C. for 15 min to 2 h. The reaction was quenched by adding 300 μl of methanol, and products were extracted with 300 μl of hexanes. Production of 11-cis-retinol was quantified by normal phase HPLC with 10% (v/v) ethyl acetate in hexanes as the eluent at a flow rate of 1.4 ml·min^−1. Retinoids were detected by monitoring their absorbance at 325 nm and quantified based on a standard curve representing the relationship between the amount of 11-cis-retinol and the area under the corresponding chromatographic peak.
Primary amines of compounds derived from the aldehydes were subsequently tested for their ability to inhibit the RPE65-dependent retinoid isomerization reaction in dose- and time dependent reactions as exemplified by QEB-B-001 (FIG. 3B). Amines were incubated with RPE microsomes in the presence of all-trans-retinol and the 11-cis-retinoid binding protein, CRALBP.
Progress of the enzymatic reaction was monitored by HPLC separation of retinoids and quantification of 11-cis-retinol with a decrease of 11-cis-retinol production reflecting inhibition of RPE65 by a tested amine. […] This moderate inhibition could be enhanced by shortening the polyene chain length (TEA amines) or diminished by introducing an extra positive charge into the tested compounds (QEA-G amines).

[2] = tested on: Abca4^−/−Rdh8^−/− mice; test: Toxicity in treated Abca4−/−Rdh8−/− mice (Table 2); format: in vivo; details: 4-week-old Abca4−/−Rdh8−/− mice, oral gavage
Procedure: (§1) Abca4^−/−Rdh8^−/− double knockout mice were generated as previously described. Mice were housed in the animal facility at the School of Medicine, Case Western Reserve University, where they were maintained under either complete darkness or in a 12-h light (˜300 lux) and 12-h dark cycle. All tested primary amines were suspended in 100 μl of soybean oil with less than 10% (v/v) DMSO and were administered by oral gavage with a 22-gauge feeding needle. Experimental manipulations in the dark were done under dim red light transmitted through a Kodak No. 1 safelight filter (transmittance >560 nm). All animal procedures and experiments were approved by the Case Western Reserve University Animal Care Committees and conformed to recommendations of the American Veterinary Medical Association Panel on Euthanasia and the Association of Research for Vision and Ophthalmology.
(§2) For practical reasons, only eight of these leading compounds (QEA-B-001-NH2, B-002-NH2, C-001-NH2, C-003-NH2, C006-NH2, E-002-NH2, TEA-B-002-NH2, and C00-2-NH2) along with retinylamine as a control were selected for further testing in Abca4^−/−Rdh8^−/− mice, an animal model for light-induced retinal degeneration (Table 2). Additionally, two novel amines with moderate inhibition of RPE65 (QEA-A-006-NH2 and QEA-B-003-NI 12) and one with strong inhibition (QEA-A-005-NH2) were added to the first test group for comparison. Mice were gavaged with 1 mg of a test compound and then kept in the dark for 24 h prior to being exposed to bright light (˜10,000 lux) for 1 h. Retinal damage was assessed with OCT that measured the thickness of the outer nuclear layer and by quantification of tissue 11-cis retinal levels. An example is shown for imaging results in FIG. 4A and for 11-cis-retinal quantification in FIG. 4B. Additionally, extracts of livers obtained from treated mice were analyzed by HPLC to estimate the amounts of corresponding amides (FIG. 4C).

[3] = Analysis of retinoid composition in mouse tissues: amide forms in liver by HPLC; format: in vivo, mice; details: oral gavage; for Protection by amide in liver: 4-week-old Abca4−/−Rdh8−/− mice, dark 24 h, liver extracts by HPLC
Procedure: as §1
Two mg of primary amines were administered by oral gavage to 4-week-old Abca4^−/−Rdh8^−/− mice, which then were kept in the dark for 24 h. Then mice were euthanized, and their livers were homogenized in 1 ml of 10 mM sodium phosphate buffer, pH 7.4, containing 50% methanol (v/v). The resulting mixture was extracted with 4 ml of hexanes. Extracts were dried in vacuo, and reconstituted in 300 μl of hexanes. 100 μl of this solution was analyzed by HPLC as described above for the LRAT activity assay.
as §2

[4] = tested on: Abca4^−/−Rdh8^−/− mice; test: Light-induced acute retinal degeneration in Abca4−/−Rdh8−/− mice (OCT, 11-cis-retinal, ERG); format: in vivo; details: for OCT imaging of the retina: 3 d after bleaching; for average ONL thickness: OCT 3 d after bleaching
Procedure: as §1
After dark adaptation for 24 h, 4-week-old male or female Abca4^−/−Rdh8^−/− mice with pupils dilated by 1% tropicamide were exposed to fluorescent light (10,000 lx; 150 W spiral lamp, Commercial Electric) for 1 h in a white paper bucket (Papersmith), and then kept in the dark for an additional 3 d. Development of retinal degeneration was then examined by ultra-high resolution spectral-domain OCT (SDOCT; Bioptigen) and ERGs as previously described.
Then animals were euthanized and their eyes were collected and homogenized in 10 mM sodium phosphate buffer, pH 7.4, containing 50% methanol (v/v) and 40 mM hydroxylamine. The resulting mixture was extracted with 4 ml of hexanes. Extracts were dried in vacuo, reconstituted in 300 μl of hexanes and 100 μl of the extract was injected into an HPLC for analysis with 10% (v/v) ethyl acetate in hexanes.
as §2
Once the time course of retinylamine's inhibitory effect was established, we investigated the correlation between the level of inhibition and the protective effect on the retina. Four week old Abca4^−/−Rdh8^−/− mice were gavaged with 0.1, 0.2, and 0.5 mg of retinylamine, respectively, and kept in the dark for 24 h. Mice then were bleached with 10,000 lux bright light for 1 h. Measured as described above, the recovery of visual chromophore was inhibited by about 40%, 80%, and 95%, respectively by these tested drug doses (FIGS. 5B and 5C). Bleached mice were kept in the dark for 3 d, and then imaged by OCT (FIGS. 6A and 6B). […] The average ONL thickness in the latter group of mice was 51.1±5.8 μm, well within the range of healthy retinas. […] Their average ONL thickness was 34.4±17.4 μm. […] In an equivalent experiment, mice were kept in the dark for 7 days prior to quantification of visual chromophore levels. (Amounts of 11-cis-retinal reflect the concentration of rhodopsin and thus can be used to verify the health of photoreceptor cells).

[5] = 0.1 mg, dark 7 days after bleaching
[6] = 0.2 mg, dark 7 days after bleaching

T1 sequence (Q28175 whole entry): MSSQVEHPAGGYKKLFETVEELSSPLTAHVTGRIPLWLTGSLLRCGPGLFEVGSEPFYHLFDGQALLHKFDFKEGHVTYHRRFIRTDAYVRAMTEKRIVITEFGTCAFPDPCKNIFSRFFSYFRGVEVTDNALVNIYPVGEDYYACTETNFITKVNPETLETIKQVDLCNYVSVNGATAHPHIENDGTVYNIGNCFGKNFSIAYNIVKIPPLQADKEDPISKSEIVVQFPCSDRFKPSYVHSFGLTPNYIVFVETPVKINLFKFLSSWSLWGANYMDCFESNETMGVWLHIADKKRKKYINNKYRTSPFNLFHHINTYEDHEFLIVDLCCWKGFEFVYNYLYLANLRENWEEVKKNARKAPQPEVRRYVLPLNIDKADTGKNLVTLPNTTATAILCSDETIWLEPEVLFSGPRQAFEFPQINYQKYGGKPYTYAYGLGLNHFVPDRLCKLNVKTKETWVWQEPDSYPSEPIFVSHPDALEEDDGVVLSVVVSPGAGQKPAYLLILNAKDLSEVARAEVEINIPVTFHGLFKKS

Compound: CC1=C(/C=C/C(C)=C/C=C/C(C)=C/CN)C(C)(C)CCC1 [QEA-A-001-NH2, retinylamine]
- IC50 [1]: < 10 µM
- Toxicity [2]: None
- Protection by amide in liver [3]: Strong
- protection against retinal degeneration ([4]; 0.1 mg dose, bright light exposure): failed to protect
- OCT imaging of the retina ([4]; 0.1 mg): severe retinal degeneration
- 11-cis-retinal levels [4, 5]: 323±48 pmol/eye
- ERG responses [4, 5]: attenuated ERG responses
- OCT imaging of the retina ([4]; 0.2 mg): partially protected
- average ONL thickness ([4]; 0.2 mg): 34.4±17.4 μm
- 11-cis-retinal levels [4, 6]: 445±37 pmol/eye
- ERG scotopic a wave responses [4, 6]: same ERG scotopic a wave responses as unbleached control mice
- OCT imaging of the retina ([4]; 0.5 mg): clear intact ONL image
- average ONL thickness ([4]; 0.5 mg): 51.1±5.8 μm
- ERG scotopic a wave responses ([4]; 0.5 mg, dark 7 days after bleaching): same ERG scotopic a wave responses as unbleached control mice

Compound: CC(/C=C/C=C(/C=C/C1=CCCCC1)C(C)(C)C)=C\CN [QEA-B-001-NH2]
- inhibition of RPE65 [1]: modest or non-inhibitor; also recorded: did not inhibit
- IC50 [1]: > 200 µM
- Toxicity [2]: Yes
- Protection by amide in liver [3]: Strong
- amidation in vivo (accumulation of amide forms in mouse liver) ([3]; liver HPLC): efficiently converted into amides
- prevention of light-induced retinal degeneration ([4]; gavaged with 1 mg, dark 24 h, ~10,000 lux 1 h, OCT): inability to prevent
